Assay results as given in ChEMBL document CHEMBL5380869, “Discovery of an Oral, Beyond-Rule-of-Five Mcl-1 Protein-Protein Interaction Modulator with the Potential of Treating Hematological Malignancies” (J Med Chem, 2023).
In brackets after ≈: the same amount, converted by molar mass. One block for each compound: values may come before it. Activity calls are given as the source filed them. No cut-off for these calls is given here.

Experiments:
[1] = Half life in CD1 mouse at 1 mg/kg, iv administered as bolus dose; type: ADME, organism-based; conditions: in vivo
[2] = Hepatic intrinsic clearance in Swiss CD-1 mouse hepatocytes measured per 10^6 cells at 1 uM measured upto 120 mins by LC-MS/MS analysis; type: ADME, cell-based, Hepatocyte; conditions: read-out: CLH
[3] = Cardiotoxicity risk in human iPSC-CM assessed as calcium transients at 0.3 uM by CTCM assay; type: toxicity, cell-based
Cytochrome P450 1A2 = molecular target: T1, Cytochrome P450 1A2 (Homo sapiens, UniProt P05177); assay: Inhibition of human CYP1A2 assessed as fluorescent metabolites by CYP450 inhibition assay; type: ADME
T1 sequence (P05177 whole entry): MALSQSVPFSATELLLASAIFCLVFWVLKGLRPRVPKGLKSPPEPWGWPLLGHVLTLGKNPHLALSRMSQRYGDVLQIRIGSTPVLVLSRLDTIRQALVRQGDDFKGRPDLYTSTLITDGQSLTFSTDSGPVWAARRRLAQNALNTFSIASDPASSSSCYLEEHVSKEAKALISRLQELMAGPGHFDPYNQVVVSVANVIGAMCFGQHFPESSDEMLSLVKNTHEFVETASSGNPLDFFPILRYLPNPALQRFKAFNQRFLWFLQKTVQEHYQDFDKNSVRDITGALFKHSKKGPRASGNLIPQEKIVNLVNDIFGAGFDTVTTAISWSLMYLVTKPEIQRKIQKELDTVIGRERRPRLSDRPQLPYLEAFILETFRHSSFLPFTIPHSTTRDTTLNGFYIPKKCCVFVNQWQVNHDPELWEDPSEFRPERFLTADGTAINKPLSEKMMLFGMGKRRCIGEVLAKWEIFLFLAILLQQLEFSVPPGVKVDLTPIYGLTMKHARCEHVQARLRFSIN

CYP1A2 [4] = molecular target: T2, CYP1A2 (Homo sapiens, UniProt P05177); assay: Induction of human CYP1A2 assessed as fold change at 1 uM by CYP450 induction assay; type: ADME; conditions: read-out: FC
T2 sequence (P05177 whole entry): T1 sequence (P05177 whole entry)

[5] = Cardiotoxicity risk in human iPSC-CM assessed as calcium transients at 3 uM by CTCM assay; type: toxicity, cell-based
[6] = Fraction absorbed in CD1 mouse at 5 mg/kg, po administered as bolus dose; type: ADME, organism-based; conditions: in vivo, read-out: Fabs
[7] = Metabolic stability in Swiss CD-1 mouse hepatocytes assessed as half life at 1 uM measured by LC-MS/MS analysis; type: ADME, cell-based, Hepatocyte
[8] = Inhibition of terbium-labelled Mcl-1 (unknown origin)/Bim BH3 peptide (H3N-(C/Cy5Mal)-WIAQELRRIGDEFN-OH) (unknown origin) interaction assessed as displacement of Cy5-labeled Bim BH3 peptide by TR-HTRF assay
[9] = Fraction unbound in mouse plasma at 5 uM incubated for 4.5 hrs by rapid equilibrium dialysis; type: ADME, cell-free
[10] = Metabolic stability in human hepatocytes assessed as half life at 1 uM measured by LC-MS/MS analysis; type: ADME, cell-based, Hepatocyte
[11] = Hepatic intrinsic clearance in human hepatocytes measured per 10^6 cells at 1 uM measured upto 120 mins by LC-MS/MS analysis; type: ADME, cell-based, Hepatocyte; conditions: read-out: CLH
[12] = Oral bioavailability in CD1 mouse at 5 mg/kg administered as bolus dose; type: ADME, organism-based; conditions: in vivo
MOLP-8 = assay: Induction apoptosis in human MOLP8 cells assessed as cell killing measured after 2 hrs by Caspase-Glo 3/7 Assay; type: functional, cell-based; conditions: MOLP-8, 2 h
[13] = Clearance in CD1 mouse at 1 mg/kg, iv administered as bolus dose; type: ADME, organism-based; conditions: in vivo
CYP3A4 [14] = molecular target: T3, CYP3A4 (Homo sapiens, UniProt P08684); assay: Induction of human CYP3A4 assessed as fold change at 10 uM by CYP450 induction assay; type: ADME; conditions: read-out: FC
T3 sequence (P08684 whole entry): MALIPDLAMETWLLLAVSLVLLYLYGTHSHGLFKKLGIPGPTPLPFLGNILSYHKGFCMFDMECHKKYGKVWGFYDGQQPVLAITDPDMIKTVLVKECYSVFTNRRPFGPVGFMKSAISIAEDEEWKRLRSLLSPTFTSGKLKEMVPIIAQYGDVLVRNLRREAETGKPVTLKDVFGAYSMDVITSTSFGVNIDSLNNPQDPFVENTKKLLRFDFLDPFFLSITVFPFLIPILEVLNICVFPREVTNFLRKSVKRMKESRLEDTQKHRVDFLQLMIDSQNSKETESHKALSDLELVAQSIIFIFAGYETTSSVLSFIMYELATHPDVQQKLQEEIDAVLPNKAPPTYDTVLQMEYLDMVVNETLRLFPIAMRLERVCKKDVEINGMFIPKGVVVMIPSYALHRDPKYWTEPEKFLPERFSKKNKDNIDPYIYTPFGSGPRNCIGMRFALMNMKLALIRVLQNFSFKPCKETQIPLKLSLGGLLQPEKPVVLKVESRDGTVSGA

[15] = Volume of distribution at steady state in CD1 mouse at 1 mg/kg, iv administered as bolus dose; type: ADME, organism-based; conditions: in vivo, read-out: Vdss
[16] = Tmax in CD1 mouse at 5 mg/kg, po administered as bolus dose; type: ADME, organism-based; conditions: in vivo
[17] = Cmax in CD1 mouse at 5 mg/kg, po administered as bolus dose; type: ADME, organism-based; set-up: dose 5 mg/kg, route po; conditions: in vivo
MOLM-13 [18] = assay: In vivo inhibition of Mcl-1 in human MOLM-13 cells sc implanted in NSG mouse assessed as disruption of Mcl-1/Bim complex in tumor at 10 mg/kg, po; type: functional, organism-based
[19] = Fraction unbound in human plasma at 5 uM incubated for 4.5 hrs by rapid equilibrium dialysis; type: ADME, cell-free
[20] = Thermodynamic (equilibrium) solubility of the compound measured after 3 days agitation in pH 2 buffer by LC-MS/MS analysis; type: physicochemical; conditions: time 3 day, read-out: Therm_solubility
Cytochrome P450 2C19 = Cytochrome P450 2C19 (Homo sapiens, UniProt P33261); assay: Inhibition of human CYP2C19 assessed as fluorescent metabolites by CYP450 inhibition assay; type: ADME
Cytochrome P450 2C19, sequence (P33261 whole entry): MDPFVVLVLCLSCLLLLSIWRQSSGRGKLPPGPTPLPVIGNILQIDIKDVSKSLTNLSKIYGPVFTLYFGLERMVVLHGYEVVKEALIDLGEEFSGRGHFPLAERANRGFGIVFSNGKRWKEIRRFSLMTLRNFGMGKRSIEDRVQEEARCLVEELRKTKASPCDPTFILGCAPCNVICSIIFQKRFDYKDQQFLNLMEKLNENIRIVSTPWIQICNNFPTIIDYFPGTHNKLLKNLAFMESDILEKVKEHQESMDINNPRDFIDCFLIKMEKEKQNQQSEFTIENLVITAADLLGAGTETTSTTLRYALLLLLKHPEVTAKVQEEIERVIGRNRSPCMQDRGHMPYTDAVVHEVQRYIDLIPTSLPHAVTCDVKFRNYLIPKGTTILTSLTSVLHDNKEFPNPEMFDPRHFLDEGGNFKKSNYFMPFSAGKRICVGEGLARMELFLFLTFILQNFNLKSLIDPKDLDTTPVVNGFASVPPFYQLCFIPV

[21] = Intrinsic clearance in mouse liver microsomes measured upto 60 mins by LC-MS/MS analysis; type: ADME, Microsome; conditions: read-out: CLH
[22] = Intrinsic clearance in human liver microsomes measured upto 60 mins by LC-MS/MS analysis; type: ADME, Microsome; conditions: read-out: CLH
[23] = Initial plasma concentration in CD1 mouse at 1 mg/kg, iv administered as bolus dose; type: ADME, organism-based
Cytochrome P450 2D6 = Cytochrome P450 2D6 (Homo sapiens, UniProt P10635); assay: Inhibition of human CYP2D6 assessed as fluorescent metabolites by CYP450 inhibition assay; type: ADME
Cytochrome P450 2D6, sequence (P10635 whole entry): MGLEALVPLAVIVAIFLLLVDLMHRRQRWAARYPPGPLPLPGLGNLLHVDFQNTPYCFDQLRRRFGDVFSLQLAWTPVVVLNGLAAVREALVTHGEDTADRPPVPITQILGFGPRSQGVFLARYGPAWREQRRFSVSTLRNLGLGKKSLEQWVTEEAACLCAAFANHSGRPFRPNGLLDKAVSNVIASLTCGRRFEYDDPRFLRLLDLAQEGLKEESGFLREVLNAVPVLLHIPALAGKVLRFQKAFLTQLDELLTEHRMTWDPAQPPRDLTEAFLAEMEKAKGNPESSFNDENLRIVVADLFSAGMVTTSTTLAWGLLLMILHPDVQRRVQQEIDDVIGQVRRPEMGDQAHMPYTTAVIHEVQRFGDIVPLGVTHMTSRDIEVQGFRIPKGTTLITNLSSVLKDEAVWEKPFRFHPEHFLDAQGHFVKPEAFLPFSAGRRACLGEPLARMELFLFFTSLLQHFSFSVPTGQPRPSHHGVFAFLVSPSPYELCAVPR

Cytochrome P450 2C9 = Cytochrome P450 2C9 (Homo sapiens, UniProt P11712); assay: Inhibition of human CYP2C9 assessed as fluorescent metabolites by CYP450 inhibition assay; type: ADME
Cytochrome P450 2C9, sequence (P11712 whole entry): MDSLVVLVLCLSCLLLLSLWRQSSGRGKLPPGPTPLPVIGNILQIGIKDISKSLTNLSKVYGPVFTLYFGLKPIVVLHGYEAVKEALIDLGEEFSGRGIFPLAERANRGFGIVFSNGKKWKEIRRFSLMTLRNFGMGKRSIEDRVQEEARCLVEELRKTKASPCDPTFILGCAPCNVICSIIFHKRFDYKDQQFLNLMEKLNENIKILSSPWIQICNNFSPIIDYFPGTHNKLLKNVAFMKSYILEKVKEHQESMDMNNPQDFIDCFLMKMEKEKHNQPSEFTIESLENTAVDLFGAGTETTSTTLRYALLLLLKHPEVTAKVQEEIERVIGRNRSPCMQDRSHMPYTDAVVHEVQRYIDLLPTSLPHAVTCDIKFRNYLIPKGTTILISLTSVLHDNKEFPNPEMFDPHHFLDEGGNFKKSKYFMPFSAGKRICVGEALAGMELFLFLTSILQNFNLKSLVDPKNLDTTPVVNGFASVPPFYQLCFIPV

MOLM-13 [24] = assay: In vivo inhibition of Mcl-1 in human MOLM-13 cells sc implanted in NSG mouse assessed as disruption of Mcl-1/Bak complex in tumor at 10 mg/kg, po; type: functional, organism-based
CYP3A4 [25] = molecular target: T3, CYP3A4; assay: Induction of human CYP3A4 assessed as fold change at 1 uM by CYP450 induction assay; type: ADME; conditions: read-out: FC
[26] = Thermodynamic (equilibrium) solubility of the compound measured after 3 days agitation in pH 7 buffer by LC-MS/MS analysis; type: physicochemical; conditions: time 3 day, read-out: Therm_solubility
Cytochrome P450 2C8 = molecular target: T4, Cytochrome P450 2C8 (Homo sapiens, UniProt P10632); assay: Inhibition of human CYP2C8 assessed as fluorescent metabolites by CYP450 inhibition assay; type: ADME
T4 sequence (P10632 whole entry): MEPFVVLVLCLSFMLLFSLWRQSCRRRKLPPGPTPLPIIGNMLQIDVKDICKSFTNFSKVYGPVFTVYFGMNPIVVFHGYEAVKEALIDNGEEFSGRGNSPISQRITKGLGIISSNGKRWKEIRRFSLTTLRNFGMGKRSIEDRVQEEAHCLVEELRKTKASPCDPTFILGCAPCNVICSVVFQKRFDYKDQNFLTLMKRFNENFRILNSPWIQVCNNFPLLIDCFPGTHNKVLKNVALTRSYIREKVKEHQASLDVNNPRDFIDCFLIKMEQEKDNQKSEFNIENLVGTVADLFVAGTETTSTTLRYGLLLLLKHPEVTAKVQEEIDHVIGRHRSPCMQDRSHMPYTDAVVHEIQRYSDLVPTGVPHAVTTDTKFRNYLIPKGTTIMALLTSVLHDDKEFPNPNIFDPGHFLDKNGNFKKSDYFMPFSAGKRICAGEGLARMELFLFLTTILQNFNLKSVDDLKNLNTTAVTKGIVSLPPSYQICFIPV

[27] = Cardiotoxicity risk in human iPSC-CM assessed as calcium transients at 1 uM by CTCM assay; type: toxicity, cell-based
[28] = Lipophilicity, CHI logD of compound at pH 7.4 by UPLC-TOF analysis; type: physicochemical; conditions: buffer
[29] = AUClast in CD1 mouse at 5 mg/kg, po administered as bolus dose; type: ADME, organism-based; set-up: dose 5 mg/kg, route po; conditions: in vivo
[30] = Cardiotoxicity risk in human iPSC-CM assessed as calcium transients at 0.1 uM by CTCM assay; type: toxicity, cell-based
[31] = Toxicity in NSG mouse xenografted with human MOLM-13 cells at 10 mg/kg, po; type: organism-based; conditions: in vivo
CYP1A2 [32] = molecular target: T2, CYP1A2; assay: Induction of human CYP1A2 assessed as fold change at 10 uM by CYP450 induction assay; type: ADME; conditions: read-out: FC

half-life [1]: 1.81 h
hepatocyte CLint at 1 µM [2]: < 1.24 µL/min/1e6 cells
inhibition (INH) (Cytochrome P450 1A2): Not Active
fold induction at 1 µM (CYP1A2 [4]): 0.95
Fa [6]: 99%
half-life at 1 µM [7]: > 9.33 h
Ki [8]: 0.011 nM
Fu [9]: 0.02%
t1/2 [10]: 5.8 h
hepatocyte CLint at 1 µM [11]: 1.99 µL/min/1e6 cells
bioavailability [12]: 78%
clearance [13]: 25 mL/min/kg
fold induction at 10 µM (CYP3A4 [14]): 4.4
Vd [15]: 3.01 L/kg
Tmax [16]: 2.33 h
Cmax [17]: 578 ng/mL
Fu [19]: 0.05%
solubility thermodynamic at 72 h [20]: < 0.1 µM
inhibition (INH) (Cytochrome P450 2C19): Not Active
microsomal CLint [21]: 15 µL/min/mg
microsomal CLint [22]: < 7.7 µL/min/mg
C0 [23]: 574 ng/mL
inhibition (INH) (Cytochrome P450 2D6): Not Active
inhibition (INH) (Cytochrome P450 2C9): Not Active
fold induction at 1 µM (CYP3A4 [25]): 1.3
solubility thermodynamic at 72 h [26]: 520 µM (≈ 401 µg/mL)
IC50 (Cytochrome P450 2C8): 5010 nM
chromatographic logD [28]: 3
AUC(0-t) [29]: 2520 ng·h/mL
Compound: COc1nn(C)cc1C(=O)N[S@@]1(=O)=NC(=O)c2ccc3c(c2)N(C[C@@H]2CCO[C@H]2[C@@H](OC)/C(F)=C/C[C@H](C)C1)C[C@@]1(CCCc2cc(Cl)ccc21)CO3
Activity [3]: Non-Toxic
Activity [5]: Non-Toxic
AC50 (MOLP-8): 44 nM
inhibition (MOLM-13 [18]): Active
inhibition (MOLM-13 [24]): Active
Activity [27]: Non-Toxic
Activity [30]: Non-Toxic
Activity [31]: Non-Toxic

inhibition (INH) (Cytochrome P450 1A2): Not Active
Ki [8]: 0.011 nM
Fu [9]: 0.08%
Fu [19]: 0.11%
fold induction at 10 µM (CYP1A2 [32]): 1.1
solubility thermodynamic at 72 h [20]: 516 µM (≈ 477 µg/mL)
inhibition (INH) (Cytochrome P450 2C19): Not Active
microsomal CLint [21]: < 7.7 µL/min/mg
microsomal CLint [22]: < 7.7 µL/min/mg
inhibition (INH) (Cytochrome P450 2D6): Not Active
inhibition (INH) (Cytochrome P450 2C9): Not Active
fold induction at 1 µM (CYP3A4 [25]): 1
solubility thermodynamic at 72 h [26]: 561 µM (≈ 519 µg/mL)
chromatographic logD [28]: 2.9
Compound: COc1nn(C)cc1C(=O)N[S@@]1(=O)=NC(=O)c2ccc3c(c2)N(C[C@@H]2CCO[C@H]2[C@@](CN2CCN4CCOC[C@@H]4C2)(OC)/C(F)=C/C[C@H](C)C1)C[C@@]1(CCCc2cc(Cl)ccc21)CO3
Activity [5]: Non-Toxic
AC50 (MOLP-8): 23.2 nM
Activity [27]: Non-Toxic
